In PubChem BioAssay AID1963843 (Molecular Pharmacology Branch, DTP, NCI, 2024):

Tested on: 616215-338-R-J1-PDC complex spheroid viability
Experiment: Anticancer human tumor 616215-338-R-J1-PDC patient-derived colon adenocarcinoma cell line growth inhibition [POLQ]
Conditions: for IC50: curve of first compound; for viability, T/C: stronger effect = lower value
Summary of the method: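 Patient-derived tumour cells were co-cultured with HUVEC and mesenchymal stem cells as multicellular spheroids at 37 °C. They were treated with POLQ inhibitors (novobiocin, ART-558, RP6685) alone or combined with other agents. Top concentrations were at or near clinical Cmax (otherwise 10 microM; SN-38 at 1 microM), decreasing in half-log steps.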

[1] = second compound 0.0316 µM, first compound 0.0316 µM
[2] = second compound 0.0316 µM, first compound 0.1 µM
[3] = second compound 0.0316 µM, first compound 0.316 µM
[4] = second compound 0.0316 µM, first compound 1 µM
[5] = second compound 0.0316 µM, first compound 3.16 µM
[6] = second compound 0.0316 µM, first compound 10 µM
[7] = second compound 0.1 µM, first compound 0.0316 µM
[8] = second compound 0.1 µM, first compound 0.1 µM
[9] = second compound 0.1 µM, first compound 0.316 µM
[10] = second compound 0.1 µM, first compound 1 µM
[11] = second compound 0.1 µM, first compound 3.16 µM
[12] = second compound 0.1 µM, first compound 10 µM
[13] = second compound 0.316 µM, first compound 0.0316 µM
[14] = second compound 0.316 µM, first compound 0.1 µM
[15] = second compound 0.316 µM, first compound 0.316 µM
[16] = second compound 0.316 µM, first compound 1 µM
[17] = second compound 0.316 µM, first compound 3.16 µM
[18] = second compound 0.316 µM, first compound 10 µM
[19] = second compound 1 µM, first compound 0.0316 µM
[20] = second compound 1 µM, first compound 0.1 µM
[21] = second compound 1 µM, first compound 0.316 µM
[22] = second compound 1 µM, first compound 1 µM
[23] = second compound 1 µM, first compound 3.16 µM
[24] = second compound 1 µM, first compound 10 µM
[25] = second compound 3.16 µM, first compound 0.0316 µM
[26] = second compound 3.16 µM, first compound 0.1 µM
[27] = second compound 3.16 µM, first compound 0.316 µM
[28] = second compound 3.16 µM, first compound 1 µM
[29] = second compound 3.16 µM, first compound 3.16 µM
[30] = second compound 3.16 µM, first compound 10 µM
[31] = second compound 10 µM, first compound 0.0316 µM
[32] = second compound 10 µM, first compound 0.1 µM
[33] = second compound 10 µM, first compound 0.316 µM
[34] = second compound 10 µM, first compound 1 µM
[35] = second compound 10 µM, first compound 3.16 µM
[36] = second compound 10 µM, first compound 10 µM
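Further: spheroids exposed to compounds for one week before readout.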
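Wherever viability, T/C is given: percent viability relative to DMSO vehicle wells taken as 100%.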

Compound: C#Cc1c(F)ccc2cc(O)cc(-c3ncc4c(N5CC6CCC(C5)N6)nc(OCC56CCCN5CC(F)C6)nc4c3F)c12 (stereo unspecified) + Nc1ccc(C#CCN(C(=O)Cc2ncc(C(F)(F)F)cc2C(F)(F)F)c2ccc(F)cc2)nn1
- IC50 (second compound 0.0316 µM): 7.31 µM
- IC50 (second compound 0.1 µM): 4.11 µM
- IC50 (second compound 0.316 µM): 3.43 µM
- IC50 (second compound 1 µM): 6.65 µM
- IC50 (second compound 3.16 µM): 6.47 µM
- IC50 (second compound 10 µM): 2.49 µM
- viability, T/C [1]: 105%
- viability, T/C [2]: 96.2%
- viability, T/C [3]: 98.5%
- viability, T/C [4]: 88.6%
- viability, T/C [5]: 62.5%
- viability, T/C [6]: 45.3%
- viability, T/C [7]: 97.1%
- viability, T/C [8]: 95.9%
- viability, T/C [9]: 90.4%
- viability, T/C [10]: 75.3%
- viability, T/C [11]: 56.9%
- viability, T/C [12]: 29.2%
- viability, T/C [13]: 111%
- viability, T/C [14]: 112%
- viability, T/C [15]: 75.2%
- viability, T/C [16]: 63.3%
- viability, T/C [17]: 58.6%
- viability, T/C [18]: 39%
- viability, T/C [19]: 103%
- viability, T/C [20]: 96.2%
- viability, T/C [21]: 91.3%
- viability, T/C [22]: 81.9%
- viability, T/C [23]: 53.7%
- viability, T/C [24]: 47.9%
- viability, T/C [25]: 84.7%
- viability, T/C [26]: 89.2%
- viability, T/C [27]: 99.5%
- viability, T/C [28]: 68.8%
- viability, T/C [29]: 68.1%
- viability, T/C [30]: 40.7%
- viability, T/C [31]: 92.9%
- viability, T/C [32]: 86.2%
- viability, T/C [33]: 74.6%
- viability, T/C [34]: 57.1%
- viability, T/C [35]: 50.6%
- viability, T/C [36]: 33.7%

Compound: C=CC(=O)N1CCN(c2nc(=O)n(-c3c(C)ccnc3C(C)C)c3nc(-c4c(O)cccc4F)c(F)cc23)C(C)C1 (stereo unspecified) + Nc1ccc(C#CCN(C(=O)Cc2ncc(C(F)(F)F)cc2C(F)(F)F)c2ccc(F)cc2)nn1
- IC50 (second compound 0.0316 µM): > 10 µM
- IC50 (second compound 0.1 µM): > 10 µM
- IC50 (second compound 0.316 µM): > 10 µM
- IC50 (second compound 1 µM): > 10 µM
- IC50 (second compound 3.16 µM): > 10 µM
- IC50 (second compound 10 µM): > 10 µM
- viability, T/C [1]: 115%
- viability, T/C [2]: 99.3%
- viability, T/C [3]: 96.9%
- viability, T/C [4]: 99.6%
- viability, T/C [5]: 89.2%
- viability, T/C [6]: 66.8%
- viability, T/C [7]: 103%
- viability, T/C [8]: 101%
- viability, T/C [9]: 98.3%
- viability, T/C [10]: 90.6%
- viability, T/C [11]: 85.5%
- viability, T/C [12]: 63.5%
- viability, T/C [13]: 95.2%
- viability, T/C [14]: 96.7%
- viability, T/C [15]: 95.2%
- viability, T/C [16]: 91%
- viability, T/C [17]: 78.8%
- viability, T/C [18]: 62.2%
- viability, T/C [19]: 96.3%
- viability, T/C [20]: 95.2%
- viability, T/C [21]: 96.6%
- viability, T/C [22]: 94.6%
- viability, T/C [23]: 84.4%
- viability, T/C [24]: 67.3%
- viability, T/C [25]: 92.6%
- viability, T/C [26]: 89.2%
- viability, T/C [27]: 97.7%
- viability, T/C [28]: 93.8%
- viability, T/C [29]: 85%
- viability, T/C [30]: 67%
- viability, T/C [31]: 88.2%
- viability, T/C [32]: 94.4%
- viability, T/C [33]: 95.2%
- viability, T/C [34]: 82.9%
- viability, T/C [35]: 87.7%
- viability, T/C [36]: 65.4%

Compound: CC(C)n1c(=O)n(C)c2cnc3cc(F)c(-c4ccc(OCCCN5CCCCC5)nc4)cc3c21 + Nc1ccc(C#CCN(C(=O)Cc2ncc(C(F)(F)F)cc2C(F)(F)F)c2ccc(F)cc2)nn1
- IC50 (second compound 0.0316 µM): > 10 µM
- IC50 (second compound 0.1 µM): > 10 µM
- IC50 (second compound 0.316 µM): > 10 µM
- IC50 (second compound 1 µM): > 10 µM
- IC50 (second compound 3.16 µM): > 10 µM
- IC50 (second compound 10 µM): > 10 µM
- viability, T/C [1]: 95%
- viability, T/C [2]: 92.2%
- viability, T/C [3]: 103%
- viability, T/C [4]: 101%
- viability, T/C [5]: 111%
- viability, T/C [6]: 103%
- viability, T/C [7]: 93.2%
- viability, T/C [8]: 110%
- viability, T/C [9]: 110%
- viability, T/C [10]: 89.4%
- viability, T/C [11]: 103%
- viability, T/C [12]: 96.4%
- viability, T/C [13]: 96.8%
- viability, T/C [14]: 97.5%
- viability, T/C [15]: 99.5%
- viability, T/C [16]: 97.1%
- viability, T/C [17]: 97.7%
- viability, T/C [18]: 99.2%
- viability, T/C [19]: 107%
- viability, T/C [20]: 99.8%
- viability, T/C [21]: 83.1%
- viability, T/C [22]: 104%
- viability, T/C [23]: 97.4%
- viability, T/C [24]: 86.8%
- viability, T/C [25]: 112%
- viability, T/C [26]: 97.8%
- viability, T/C [27]: 84.7%
- viability, T/C [28]: 90.6%
- viability, T/C [29]: 117%
- viability, T/C [30]: 96.2%
- viability, T/C [31]: 99.5%
- viability, T/C [32]: 79.3%
- viability, T/C [33]: 103%
- viability, T/C [34]: 103%
- viability, T/C [35]: 76.9%
- viability, T/C [36]: 97.5%
